This is an account of results in PubChem BioAssay (NCI).

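1) Cells in 96-well plates. 2) Compound, 48 h, 5 concentrations. 3) Linear interpolation between surrounding doses. 4) Unreached endpoint = highest concentration. GI50 marks 50% less growth. At the TGI there is no net growth.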

Holding throughout (assay): NCI tumour cell line growth inhibition, 48 h
Assay [1] has as its system A549 NSCLC.
For assay [2], the system named is ACHN renal.
Assay [3] has as its system EKVX NSCLC.
Assay [4] deals with HCC-2998 colon.
For assay [5], the system named is HOP-62 NSCLC.
Assay [6] has as its system MOLT-4 leukemia.
Assay [7] has as its system NCI-H460 lung.
The test system of assay [8] is OVCAR-3 ovarian.
The test system of assay [9] is OVCAR-4 ovarian.
Assay [10] relates to SF-268 CNS.

With `Brc1cccc(C2(CCCC3(c4cccc(Br)n4)OCCO3)OCCO2)n1`, the TGI in [1], in assay [2], in [3], in [4], in [5] and in [6] was over 100 µM throughout. For the same molecule, the TGI in assay [7] is over 100 µM; in assay [8], over 100 µM; in [9] it was over 100 µM; in assay [10], 71.5 µM.

As for `NCCCCNCCCN`, the TGI in assay [1], in [2], in assay [3], in [4], in assay [5] and in assay [6] was over 100 µM each time. Moreover, the TGI in assay [7] is over 100 µM; in assay [8] it was over 100 µM; in assay [9], 37.6 µM; in assay [10], over 100 µM.

On to `O=C(Nc1ccc2ccccc2c1)Nn1cnnc1`, for which the TGI in assay [1], in assay [2], in [3], in assay [4], in assay [5] and in assay [6] was over 100 µM each time. The TGI in [7], in [8], in [9] and in [10] was over 100 µM each time.

For `Cc1nc2ccccc2c(=O)n1NC(=O)Cc1ccccc1`, the TGI in [1], in assay [2], in assay [3], in [4], in assay [5] and in [6] was over 100 µM in each case. Besides, the TGI in assay [7], in assay [8], in [9] and in assay [10] was over 100 µM each time.

Consider `CC1(C)Oc2ccc(Cl)cc2C12CC2`, for which the TGI is 48.4 µM in [1]; 30.1 µM in assay [2]; 37.9 µM in assay [3]; 30.6 µM in assay [4]; 37.7 µM in assay [5]; 44.1 µM in assay [6]. Further, the TGI came out at 39.7 µM in assay [7], 26.7 µM in assay [8], 29.6 µM in assay [9] and 31.6 µM in assay [10].

In the case of `Oc1c(I)cc(I)cc1CNCCCN(Cc1ccccn1)Cc1ccccn1`, the GI50 is 1.32 µM in assay [1]; 0.912 µM in assay [2]; 1 µM in assay [3]; 0.983 µM in assay [4]; 1.02 µM in [5]; 1.18 µM in [6]. For the same molecule, the GI50 is 1.2 µM in assay [7], 0.948 µM in assay [8], 1.02 µM in [9] and 1.18 µM in assay [10]. The TGI in [1] was determined as 3.82 µM; in assay [2] it was 1.65 µM; in assay [3] it was 2.38 µM; in assay [4] it was 1.91 µM; in [5], 2.35 µM; in assay [6], 2.92 µM. The TGI came to 2.78 µM in assay [7], 1.85 µM in [8], 2.31 µM in assay [9] and 3.21 µM in assay [10].

As to `CC(=O)NC1C(OCc2ccccc2)OC(CO)C(O)C1OCC(=O)NC(C)C(=O)NC(CCC(=O)NCCCCCC(=O)Nc1ccc2c(c1)CN1C(=O)c3ccccc3C1=N2)C(N)=O` (stereo not given), the TGI in assay [1], in assay [2], in assay [3], in assay [4], in assay [5] and in [6] was over 100 µM throughout. Besides, the TGI in assay [7], in assay [8], in assay [9] and in assay [10] was over 100 µM throughout.

As for `CC(C)OC(=O)c1ccc(CCC2=CC(=O)C(Br)=CC2=O)cc1`, the TGI in [1] was over 100 µM; in assay [2] it was 27.8 µM; in [3], 31.1 µM; in [4] it was 31.9 µM; in assay [5] it was 63.1 µM; in assay [6], 14 µM. For the same molecule, the TGI in assay [7] turned out to be 46.6 µM; in assay [8], 29 µM; in assay [9], 23.1 µM; in assay [10], 32.3 µM.

Consider `CN(N)C(=O)NCCCl`, for which the TGI in assay [1], in assay [2], in assay [3], in assay [4], in [5] and in assay [6] was over 100 µM in each case. Moreover, the TGI in [7], in assay [8], in [9] and in [10] was over 100 µM in each case.

For the molecule `[N-]=[N+]=C1CNC(=O)NC1=O`, the TGI in assay [1], in assay [2], in [3], in assay [4], in assay [5] and in assay [6] was over 100 µM in each case. In addition, the TGI in assay [7], in assay [8], in assay [9] and in assay [10] was over 100 µM throughout.

For the molecule `CC1NOC(NS(=O)(=O)c2ccc(N=Nc3c(O)c(C(=O)O)cc4ccccc34)cc2)C1C` (stereo not given), the TGI in assay [1], in assay [2], in [3], in assay [4], in assay [5] and in assay [6] was over 100 µM each time. In addition, the TGI in [7], in [8], in [9] and in assay [10] was over 100 µM in each case.

For the molecule `Cc1ccc(S(=O)(=Nc2ccccc2)C(C(C)C)C(C)(C)Cl)cc1` (stereo not given), the TGI in [1] was over 50 µM; in assay [2], over 50 µM; in assay [3], 47.3 µM; in assay [4], over 50 µM; in assay [5], over 50 µM; in assay [6] it was 32.3 µM. Further, the TGI in assay [7] is 45.4 µM; in [8], over 50 µM; in [9], over 50 µM; in [10], over 50 µM.

For `Cc1ccccc1NC(=S)N=Nc1c(O)[nH]c2ccccc12`, the TGI in assay [1], in assay [2], in [3], in assay [4], in assay [5] and in assay [6] was over 100 µM in each case. Besides, the TGI in assay [7] is over 100 µM; in assay [8], over 100 µM; in [9], over 100 µM; in assay [10], 65.3 µM.

With `Cc1cc2nc3n(c2cc1C)C(c1c(F)cccc1F)SC3` (stereo not given), the TGI in assay [1] was 42.4 µM; in assay [2], 40.6 µM; in assay [3] it was 75.4 µM; in [4] it was 47.8 µM; in assay [5], 72 µM; in [6], 47 µM. Further, the TGI in assay [7] turned out to be 38.5 µM; in assay [8], 91.2 µM; in assay [9] it was 62.2 µM; in [10], 56.2 µM.

For `O=[N+]([O-])c1cccc2nc3ccccc3c(NCCC[N+]3([O-])CCCCC3)c12`, the TGI in assay [1] was 3.92 µM; in assay [2] it was 47.5 µM; in assay [3], 2.94 µM; in assay [4] it was 0.272 µM; in assay [5], 3.55 µM; in assay [6], over 100 µM. For the same molecule, the TGI is 1.18 µM in assay [7], 0.852 µM in [8], 1.15 µM in [9] and 2.22 µM in assay [10].

Consider `O=C1c2ccccc2C2(c3ccc(Cl)cc3)NCc3ccccc3CN12` (stereo not given), for which the TGI was found to be 43.8 µM in assay [1]; 51.6 µM in assay [2]; 49.1 µM in assay [3]; 45.6 µM in [4]; 30.5 µM in assay [5]; 91.7 µM in assay [6]. Further, the TGI in assay [7] is 91.5 µM; in assay [8], 26.6 µM; in assay [9] it was 79.3 µM; in [10], over 100 µM.

As to `O=c1c2c([nH]c3cc4c(cc13)OCO4)-c1ccccc1CCC2`, the TGI in assay [1], in assay [2], in assay [3], in [4], in assay [5] and in [6] was over 50 µM throughout. Besides, the TGI in assay [7], in assay [8], in assay [9] and in assay [10] was over 50 µM each time.

In the case of `COc1cc2c3c(cc(Cl)nc3c1OC)C(O)(CC(C)=O)C(=O)N2` (stereo not given), the TGI is over 62.3 µM in assay [1]; over 54 µM in assay [2]; 30.9 µM in assay [3]; over 60.5 µM in [4]; over 59.8 µM in assay [5]; over 34.5 µM in assay [6]. In addition, the TGI was over 89.6 µM in [7], over 100 µM in assay [8], 32.4 µM in [9] and 18 µM in assay [10].

In the case of `N=C1N=C(N)c2cc3c(cc21)SCCSCCCSCCS3`, the TGI in assay [1] is 49.8 µM; in assay [2], 28.2 µM; in [3], over 58.5 µM; in assay [4] it was 27.8 µM; in [5], 30.7 µM; in [6], 32.5 µM. The TGI in assay [7] is 29.9 µM; in assay [8] it was 28.4 µM; in [9], 56.5 µM; in [10], 32.4 µM.

On to `Oc1[nH]c2ccccc2c1N=NC(=S)N1CCCCCC1`, for which the TGI in assay [1] amounted to 6.57 µM; in [2] it was 8.73 µM; in [3], 6.8 µM; in assay [4] it was 7.1 µM; in [5], 4.09 µM; in [6], 3.1 µM. In addition, the TGI in assay [7] was 5.28 µM; in [8], 1.49 µM; in assay [9], 3.91 µM; in assay [10], 11.8 µM.

As to `CCC(=N\NC(N)=S)/C(C)=N/O`, the TGI in [1], in [2], in assay [3], in [4], in assay [5] and in [7] was over 100 µM throughout. For the same molecule, the TGI in assay [8], in [9] and in [10] was over 100 µM each time.

Consider `Sc1nnc(-c2ccccc2Nc2ccccc2-c2nnc(S)n2-c2ccccc2)n1-c1ccccc1`, for which the TGI in [2] is over 100 µM; in assay [3], 97.9 µM; in assay [4], over 100 µM; in [5], over 100 µM; in assay [6], 78.9 µM; in [7] it was over 100 µM. Moreover, the TGI in assay [8], in assay [9] and in assay [10] was over 100 µM each time.

As for `c1ccc([C@H]2CN3CCSC3=N2)cc1`, the TGI in [1], in [2], in assay [3], in assay [4], in assay [5] and in assay [6] was over 100 µM throughout. Besides, the TGI in assay [7], in assay [8], in [9] and in assay [10] was over 100 µM in each case.

For `CC(=O)Oc1ccc(OC(Oc2ccccc2)c2ccccc2)cc1` (stereo not given), the TGI was over 100 µM in assay [1]; 72.1 µM in assay [2]; over 100 µM in [3]; 39.7 µM in assay [4]; over 100 µM in [5]; over 100 µM in assay [6]. Further, the TGI in [7] is 49.3 µM; in assay [8], 49.5 µM; in assay [9], over 100 µM; in assay [10] it was over 100 µM.

With `CCN(CC)C(=S)SNCCc1ccc(S(N)(=O)=O)cc1`, the TGI in assay [1] is 26.5 µM; in assay [2] it was 34.3 µM; in [3], 40 µM; in assay [4] it was 50.6 µM; in assay [5], 26.3 µM; in assay [7] it was over 100 µM. For the same molecule, the TGI in assay [8] stood at 43.9 µM; in [9], 35.6 µM; in assay [10], 35.9 µM.

`COCC(=O)[C@]1(O)Cc2c(O)c3c(c(O)c2[C@@H](OC2CC(N)C(O)C(C)O2)C1)C(=O)c1c(OC)cccc1C3=O` (stereo not given in full): the TGI in assay [1] stood at 17.4 µM; in [3], 2.9 µM; in assay [4], 0.691 µM; in [5], 0.847 µM; in [6] it was 0.054 µM; in [7], 0.583 µM. Further, the figures for the TGI in assay [8], in [9] and in [10] were 0.536 µM, 1.56 µM and 0.267 µM, respectively.

Turning to `CCCCNC(=S)/N=C/c1c(O)c2ccccc2oc1=O`, the TGI in assay [1], in assay [2], in assay [3], in [4], in assay [5] and in assay [6] was over 100 µM in each case. The TGI in assay [7], in assay [8] and in assay [9] was over 100 µM in each case.
